Experimental data as given in ChEMBL document CHEMBL1144322, “Structure-based design of potent and selective inhibitors of collagenase-3 (MMP-13)” (Bioorg Med Chem Lett, 2005).
pKi: −log10 of the molar value.

How the values were obtained:
[1] = target: T1, Collagenase 3 (Homo sapiens, UniProt P45452); experiment: Inhibition of matrix metalloprotease-13
[2] = target: T2, Interstitial collagenase (Homo sapiens, UniProt P03956); experiment: Inhibition of matrix metalloprotease-1
T2 sequence (P03956 whole entry): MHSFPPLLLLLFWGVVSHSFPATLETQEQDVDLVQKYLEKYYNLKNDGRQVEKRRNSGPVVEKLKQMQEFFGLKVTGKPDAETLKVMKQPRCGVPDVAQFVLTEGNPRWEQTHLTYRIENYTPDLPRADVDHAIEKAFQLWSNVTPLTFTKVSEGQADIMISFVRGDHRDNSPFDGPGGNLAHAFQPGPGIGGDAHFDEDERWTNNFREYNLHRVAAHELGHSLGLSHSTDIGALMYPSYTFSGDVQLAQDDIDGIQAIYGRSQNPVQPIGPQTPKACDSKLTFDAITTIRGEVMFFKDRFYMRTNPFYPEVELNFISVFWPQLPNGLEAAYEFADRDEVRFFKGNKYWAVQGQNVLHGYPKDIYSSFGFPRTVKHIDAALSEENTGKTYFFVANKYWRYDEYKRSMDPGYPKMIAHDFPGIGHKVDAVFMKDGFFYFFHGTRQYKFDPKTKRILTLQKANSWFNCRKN

[3] = target: 72 kDa type IV collagenase (Homo sapiens, UniProt P08253); experiment: Inhibition of matrix metalloprotease-2
[4] = target: Stromelysin-1 (Homo sapiens, UniProt P08254); experiment: Inhibition of matrix metalloprotease-3
[5] = target: Matrix metalloproteinase-9 (Homo sapiens, UniProt P14780); experiment: Inhibition of matrix metalloprotease-9
[6] = target: Disintegrin and metalloproteinase domain-containing protein 17 (Homo sapiens, UniProt P78536); experiment: Inhibition of TNF-alpha converting enzyme (TACE, ADAM17)
[7] = target: T1, Collagenase 3; experiment: Binding affinity for matrix metalloprotease 13

Stromelysin-1, sequence (P08254 whole entry): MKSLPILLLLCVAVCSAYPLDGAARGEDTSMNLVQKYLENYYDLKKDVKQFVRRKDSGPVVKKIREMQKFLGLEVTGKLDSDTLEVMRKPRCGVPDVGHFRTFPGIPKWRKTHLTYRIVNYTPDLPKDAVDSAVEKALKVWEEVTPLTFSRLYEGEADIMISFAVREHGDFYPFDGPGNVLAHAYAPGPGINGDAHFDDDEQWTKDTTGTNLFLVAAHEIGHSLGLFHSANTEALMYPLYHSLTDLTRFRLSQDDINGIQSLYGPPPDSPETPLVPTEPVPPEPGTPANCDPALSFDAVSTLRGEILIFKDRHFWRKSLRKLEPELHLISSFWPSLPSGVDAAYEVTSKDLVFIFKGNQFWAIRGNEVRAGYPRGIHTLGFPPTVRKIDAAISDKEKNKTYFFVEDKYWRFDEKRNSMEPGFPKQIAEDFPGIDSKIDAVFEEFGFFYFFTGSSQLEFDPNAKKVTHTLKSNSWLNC
Disintegrin and metalloproteinase domain-containing protein 17, sequence (P78536 whole entry, the tested form may be a part): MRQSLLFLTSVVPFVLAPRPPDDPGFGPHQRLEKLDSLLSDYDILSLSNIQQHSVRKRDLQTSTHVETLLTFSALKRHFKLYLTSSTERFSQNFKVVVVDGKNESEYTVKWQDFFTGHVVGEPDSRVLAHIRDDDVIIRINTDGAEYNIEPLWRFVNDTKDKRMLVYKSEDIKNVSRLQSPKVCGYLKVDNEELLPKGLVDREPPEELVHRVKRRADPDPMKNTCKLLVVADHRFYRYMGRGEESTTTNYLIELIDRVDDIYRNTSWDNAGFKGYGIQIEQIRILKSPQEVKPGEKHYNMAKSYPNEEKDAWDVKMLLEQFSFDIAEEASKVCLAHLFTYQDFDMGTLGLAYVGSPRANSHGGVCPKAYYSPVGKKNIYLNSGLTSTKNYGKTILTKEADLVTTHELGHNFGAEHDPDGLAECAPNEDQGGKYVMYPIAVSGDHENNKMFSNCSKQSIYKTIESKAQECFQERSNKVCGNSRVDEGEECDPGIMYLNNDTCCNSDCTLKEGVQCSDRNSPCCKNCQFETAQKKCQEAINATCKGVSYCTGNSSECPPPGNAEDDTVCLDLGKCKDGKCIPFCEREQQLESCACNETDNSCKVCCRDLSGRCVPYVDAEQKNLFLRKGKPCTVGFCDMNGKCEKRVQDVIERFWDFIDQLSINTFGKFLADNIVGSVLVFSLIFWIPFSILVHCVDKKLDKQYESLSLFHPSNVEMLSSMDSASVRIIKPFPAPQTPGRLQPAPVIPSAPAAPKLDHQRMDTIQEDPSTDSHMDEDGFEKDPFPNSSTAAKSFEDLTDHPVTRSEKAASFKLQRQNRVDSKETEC
72 kDa type IV collagenase, sequence (P08253 whole entry): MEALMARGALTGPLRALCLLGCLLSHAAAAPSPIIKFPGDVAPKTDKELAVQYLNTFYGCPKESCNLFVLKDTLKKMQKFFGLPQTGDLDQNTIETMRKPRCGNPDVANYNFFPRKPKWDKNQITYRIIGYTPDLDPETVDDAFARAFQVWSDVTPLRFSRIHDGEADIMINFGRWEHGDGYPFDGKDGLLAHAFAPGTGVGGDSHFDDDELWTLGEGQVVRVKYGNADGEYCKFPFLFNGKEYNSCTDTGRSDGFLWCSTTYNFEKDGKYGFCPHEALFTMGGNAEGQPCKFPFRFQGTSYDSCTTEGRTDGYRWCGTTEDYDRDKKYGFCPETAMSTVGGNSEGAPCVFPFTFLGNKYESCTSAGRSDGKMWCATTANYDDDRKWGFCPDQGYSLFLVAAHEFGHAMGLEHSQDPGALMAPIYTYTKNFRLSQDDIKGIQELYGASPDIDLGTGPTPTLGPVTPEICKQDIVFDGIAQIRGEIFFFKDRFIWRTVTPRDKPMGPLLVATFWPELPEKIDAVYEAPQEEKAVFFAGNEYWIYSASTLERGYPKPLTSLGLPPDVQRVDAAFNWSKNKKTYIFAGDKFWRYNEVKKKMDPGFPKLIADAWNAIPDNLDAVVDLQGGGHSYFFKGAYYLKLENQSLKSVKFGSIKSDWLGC
Matrix metalloproteinase-9, sequence (P14780 whole entry, the tested form may be a part): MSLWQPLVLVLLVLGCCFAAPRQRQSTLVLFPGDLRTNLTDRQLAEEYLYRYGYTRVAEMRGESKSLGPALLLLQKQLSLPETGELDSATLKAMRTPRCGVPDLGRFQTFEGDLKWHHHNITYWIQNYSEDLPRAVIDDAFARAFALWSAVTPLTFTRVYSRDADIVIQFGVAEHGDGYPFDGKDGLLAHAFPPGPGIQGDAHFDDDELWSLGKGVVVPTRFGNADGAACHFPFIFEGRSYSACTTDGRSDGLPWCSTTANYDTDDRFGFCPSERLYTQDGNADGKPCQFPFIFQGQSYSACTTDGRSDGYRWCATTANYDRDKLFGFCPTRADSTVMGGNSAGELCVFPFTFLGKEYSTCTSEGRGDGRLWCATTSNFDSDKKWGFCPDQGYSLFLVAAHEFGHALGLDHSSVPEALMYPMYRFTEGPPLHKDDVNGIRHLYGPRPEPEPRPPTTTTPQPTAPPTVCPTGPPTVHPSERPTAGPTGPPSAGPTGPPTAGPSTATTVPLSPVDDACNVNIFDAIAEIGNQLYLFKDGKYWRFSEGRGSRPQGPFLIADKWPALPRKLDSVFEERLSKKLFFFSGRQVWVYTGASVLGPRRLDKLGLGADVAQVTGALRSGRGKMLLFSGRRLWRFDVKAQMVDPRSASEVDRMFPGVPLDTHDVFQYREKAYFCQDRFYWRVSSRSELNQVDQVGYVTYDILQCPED

SMILES | pKi [1] | pKi [2] | pKi [3] | pKi [4] | pKi [5] | pKi [6] | pKi [7]
COc1ccccc1Oc1ccc(N2C(=O)CCC23C(=O)NC(=O)NC3=O)cc1 | 6.96 |  |  |  |  |  | 
O=C1NC(=O)C2(CCC(=O)N2c2ccc(Oc3ccccc3)cc2)C(=O)N1 | 8.33 | < 5.30 | 8.80 | 5.35 | 8.33 | < 6.00 | 
COc1ccncc1Oc1ccc(N2C(=O)CCC23C(=O)NC(=O)NC3=O)cc1 | 7.60 |  |  |  |  |  | 
CCC1CC(=O)N(c2ccc(Oc3ccccc3)cc2)C12C(=O)NC(=O)NC2=O (single isomer, unassigned) |  | < 5.30 | 8.77 | 5.92 | 8.14 | < 6.00 | 8.39
O=C1NC(=O)C2(CCC(=O)N2c2ccc(OCc3ccccc3)cc2)C(=O)N1 | 5.96 |  |  |  |  |  | 
CCC1CC(=O)N(c2ccc(Oc3ccccc3)cc2)C12C(=O)NC(=O)NC2=O (stereo in doubt) |  | < 5.30 | 9.40 | 7.04 | 9.06 | < 6.00 | 9.27
O=C1NC(=O)C2(CCC(=O)N2c2ccc(Oc3cccc(Cl)c3)cc2)C(=O)N1 | 7.27 |  |  |  |  |  | 
COC(=O)c1ccc(Oc2ccc(N3C(=O)CCC34C(=O)NC(=O)NC4=O)cc2)cc1 | 8.38 | < 5.30 | 8.33 | 5.89 | 8.92 | < 6.00 | 
COc1cccc(Oc2ccc(N3C(=O)CCC34C(=O)NC(=O)NC4=O)cc2)c1 | 8.72 |  |  |  |  |  | 
O=C1NC(=O)C2(CCC(=O)N2c2ccc(Oc3ccc(C(=O)O)cc3)cc2)C(=O)N1 | 8.57 | < 5.30 | 9.64 | 5.49 | 9.14 | < 6.00 | 
O=C1NC(=O)C2(CCC(=O)N2c2ccc(Oc3ccc(Oc4ccccc4)cc3)cc2)C(=O)N1 | 9.48 | < 5.30 | 8.74 | 6.96 | 8.72 | < 6.00 | 
O=C1NC(=O)C2(CCC(=O)N2c2ccccc2)C(=O)N1 | 5.66 |  |  |  |  |  | 
O=C1NC(=O)C2(CCC(=O)N2c2ccc(-c3ccccc3)cc2)C(=O)N1 | 6.03 |  |  |  |  |  | 
O=C1NC(=O)C2(CCC(=O)N2c2ccc(Br)cc2)C(=O)N1 | 6.89 |  |  |  |  |  | 
O=C1NC(=O)C2(CCC(=O)N2c2ccc(Oc3ccc(Cl)cc3)cc2)C(=O)N1 | 9.02 | < 5.30 | 9.37 | 6.37 | 9.14 | < 6.00 | 
O=C1NC(=O)C2(CCC(=O)N2c2ccc(Oc3ccc4c(c3)OCO4)cc2)C(=O)N1 | 8.24 |  |  |  |  |  | 
